Reference: PubChem BioAssay (NCI)
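A five-concentration, 48-hour dose response in 96-well plates underlies each endpoint, interpolated linearly between surrounding concentrations. TGI marks complete inhibition of growth.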

Assays:
Assay in all cases: NCI tumour cell line growth inhibition, 48 h
KM12 colon = system: KM12 colon
SK-OV-3 ovarian = system: SK-OV-3 ovarian
DU-145 prostate = system: DU-145 prostate
HOP-62 NSCLC = system: HOP-62 NSCLC
NCI/ADR-RES ovarian = system: NCI/ADR-RES ovarian
NCI-H460 lung = system: NCI-H460 lung
UACC-257 melanoma = system: UACC-257 melanoma
CCRF-CEM leukemia = system: CCRF-CEM leukemia
M14 melanoma = system: M14 melanoma
NCI-H522 lung = system: NCI-H522 lung

Compound	TGI (KM12 colon) [µM]	TGI (SK-OV-3 ovarian) [µM]	TGI (DU-145 prostate) [µM]	TGI (HOP-62 NSCLC) [µM]	TGI (NCI/ADR-RES ovarian) [µM]	TGI (NCI-H460 lung) [µM]	TGI (UACC-257 melanoma) [µM]	TGI (CCRF-CEM leukemia) [µM]	TGI (M14 melanoma) [µM]	TGI (NCI-H522 lung) [µM]
c1ccc(CN[C@]23C4C5CC6C7C5C2C7[C@@](NCc2ccccc2)(C64)N3Cc2ccccc2)cc1 (some centres undefined)	> 100	> 100	> 100	> 100	> 100	> 100	> 100	> 100	> 100	> 100
CCCCCc1nnc(NS(=O)(=O)c2ccc(NC(=O)OCC(C)C)cc2)s1	> 100	> 100	> 100	> 100	> 100	> 100	> 100	77.1	> 100	79
COc1cc([C@@H]2c3cc4c(cc3[C@@H](Nc3ccccc3C(=O)c3ccccc3)[C@H]3COC(=O)[C@H]23)OCO4)cc(OC)c1OC	0.653	> 100	> 100	> 100	> 100		> 100	> 100	> 53.7	2.07
O=C(CCCCCCCCC(=O)N1C(=O)CC(=O)N(c2ccccc2)C1=S)N1C(=O)CC(=O)N(c2ccccc2)C1=S	> 100	> 100	> 100	> 100	> 100	> 100	> 100	> 100	> 100	> 100
CSCCCS/C1=C/CCCCCCCCCC1	> 100	> 100	> 100	> 100	> 100	> 100	> 100		> 100	
COc1ccc(/C=C2\CCS(=O)(=O)c3ccccc3C2=O)cc1OC	> 100	> 100	> 100	> 100	81.6	47	> 100	> 100	> 100	
O=C(CCC(=O)CC(O)(C(F)(F)F)C(F)(F)F)CC(O)(C(F)(F)F)C(F)(F)F	> 100	> 100	> 100	> 100	> 100		> 100	> 100	> 100	
COc1cc2cc(C(=O)N3CC(CCl)c4c3cc(NC(=O)OCc3ccc([N+](=O)[O-])cc3)c3ccccc43)[nH]c2c(OC)c1OC (centres undefined)	> 74.2	> 100	18	> 100	> 100	> 39.1	> 100	> 57.6	> 100	> 76.7
CCCCCCCC(CC(=O)NC(CO)C(=O)NC(CO)CC(C)C)OC(=O)CC(CCCCCCC)OC(=O)CC(CCCCCCC)OC1OC(C)C(O)C(OC2OC(C)C(O)C(O)C2OC(C)=O)C1O (centres undefined)	10.8	30.3	22.4	27.1		15.4	13.5	11.8	18.7	26.8
C=CC(OC(C)=O)c1ccc(OC(=O)C(C)C)c(OC)c1 (centres undefined)	7.2	30.3	24.5	28.4	60.8	> 57.6	23.5	5.03	17.3	3.01
CCOC(=O)c1cc(I)c(-c2cc(C)no2)n1C	49.3	> 100	> 100		> 100	> 100	> 100	> 100	> 100	> 100
O=c1[nH]c2ccccc2c(O)c1/C=N/C(=S)NCc1ccccc1	> 100	> 100	> 100	> 100	> 100		> 100		> 100	
CCOP(=O)(OCC)C(c1ccccc1)N(C(=O)NC(F)(F)F)c1cccc(F)c1 (centres undefined)	> 100		> 100	> 100	> 100	> 100	> 100	> 100	> 100	> 100
CC(C)CCCC(C)[C@H]1CC[C@H]2[C@@H]3CC[C@H]4C[C@@H](CCC=C(c5cc(Cl)c(O)c(C(=O)OC(C)C)c5)c5cc(Cl)c(O)c(C(=O)OC(C)C)c5)CC[C@]4(C)[C@H]3CC[C@]12C (some centres undefined)	> 50	> 50	> 50	> 50	> 50			> 50	> 50	
O=C(CCCCCC(=O)N1CC(CCl)c2ccc([N+](=O)[O-])cc21)N1CC(CCl)c2ccc([N+](=O)[O-])cc21 (centres undefined)	> 100	> 100	> 100	> 100	> 100	> 100	> 100	> 100	> 100	> 100
C=C1C(=O)O[C@H]2[C@H]3O[C@@H](C[C@@H]12)[C@@]1(C)CC[C@H](O1)[C@H](C)CCC[C@H]3C	4.05	19.5	2.86	16.3	2.99	3.7	3.41	2.99		2.84
Cc1ccc(-n2cc(-c3ccc(Cl)cc3)c3c(N/N=C4\SCC(=O)N4C)ncnc32)cc1	> 100	13.8	> 100	98.8	> 100	43.2	27.1	> 100	19.5	26.7
CCCCCCCCCCCCc1ccc(S(=O)(=O)O)cc1.[Zn+2]	> 100	> 100	> 100	> 100	> 100	> 100	> 100	> 100	> 100	
CCOC(=O)C[n+]1cccc(C2(c3cc4ccccc4[nH]3)OCCO2)c1	> 100	> 100	> 100	> 100	> 100	> 100	> 100	> 100	> 100	
O=c1[nH]c(=O)n(C2CC(O)C(CO)O2)cc1NN=NCCCc1ccccc1 (centres undefined)	> 100	> 100	> 100	> 100	> 100	> 100	> 100	> 100	> 100	
C/C(=C\c1ccccc1)C(=O)NCc1ccc(C(=O)NCCc2ccccc2)cc1	> 100	51.8	> 100	10.8	> 100	> 100	> 100	> 100	> 100	> 100
COc1cc(O)c2c(=O)c3c(C)cccc3n(C)c2c1	> 10	> 10	> 10	> 10	> 10	> 10	> 10	> 10	> 10	> 10

Compound	TGI (KM12 colon) [µM]	TGI (SK-OV-3 ovarian) [µM]	TGI (DU-145 prostate) [µM]	TGI (HOP-62 NSCLC) [µM]	TGI (NCI/ADR-RES ovarian) [µM]	TGI (NCI-H460 lung) [µM]	TGI (UACC-257 melanoma) [µM]	TGI (CCRF-CEM leukemia) [µM]	TGI (M14 melanoma) [µM]	TGI (NCI-H522 lung) [µM]
CCOC(=O)C(CC(C)C)NC(=O)CSc1nnc(COc2ccc(Cl)cc2)n1-c1ccccc1 (centres undefined)	39.7	59.8	32.4	36.8	44.3	29.3	23.2	23.8	31.9	
Brc1ccc2c3c1[C@H]1O[C@H]1c1cccc(c1-3)[C@@H]1O[C@H]21	28.8	35.1	25.6	30.3	76.8		34.2		32.4	27.6
Oc1ccc(Cl)cc1-c1cc(-c2ccccc2)nc(NCN2CCCCC2)n1	> 100	> 100	> 100	> 100	> 100	> 100	> 100		> 100	> 100
COC(=O)[C@H]1NC(=O)CCSSC1(C)C	> 100		> 100	> 100	> 100		> 100	> 100	> 100	> 100
CN(CCO)CCCC1COc2ccccc2O1 (centres undefined)		> 100	> 100	> 100	> 100	> 100	> 100	> 100	> 100	> 100
COc1ccc(NC(=O)CC(=O)n2nc(C)c(N=Nc3cccc(C)c3)c2C)cc1	> 100	78.7	> 100	> 100	> 100	> 100		> 100	> 100	> 100
NNc1nncc2[nH]cnc12	> 100		> 100	> 100	> 100	> 100	> 100	> 100	> 100	
CCCC(O)c1cn(C(NC(=O)c2ccccc2)P(=O)(OCC)OCC)nn1 (centres undefined)	> 100		> 100	> 100	> 100	> 100	> 100	> 100	> 100	> 100
CN(C)c1ccc(C=C2C(=O)N(c3ccccc3)N(c3ccccc3)C2=O)cc1	> 100	> 100	> 100	> 100					> 100	> 100
O=[N+]([O-])c1ccc(C(Nc2ccccc2)P(c2ccccc2)c2ccccc2)cc1 (centres undefined)	> 100	> 100	> 100	> 100	> 100	> 100	> 100		> 100	> 100
O=C1Nc2ccccc2Cn2c1cc1oc(-c3ccccc3)cc12	> 100	69.9	> 100	44.8	> 100	> 100	> 100	> 100		> 100
COC12CCCN1c1ccn(Cc3ccccc3)c(=O)c1C2=O (centres undefined)	> 100	> 100	> 100		> 100	> 100	> 100	> 100	> 100	> 100
COc1ccc2c(c1)C/C(=C\c1cccc3ccccc13)C2=O	> 100	> 100			> 100	> 100		> 100	> 100	
COC1CC(OC2C(C)OC(OC3C(C)OC(OC4C(O)CC(O[C@H]5CC[C@@]6(C)C(=CC[C@]7(O)[C@@H]6C[C@@H](OC(C)=O)[C@@]6(C)[C@]7(O)CC[C@@]6(O)C(C)=O)C5)OC4C)CC3OC)CC2OC)OC(C)C1O (some centres undefined)	> 12.5	> 12.5	> 12.5	> 12.5	> 12.5		> 12.5	> 12.5	> 12.5	> 12.5
O=C1c2ccccc2C(=O)c2sc(Nc3ccccc3C(F)(F)F)nc21	27.4	30.8	31.7	28.2		58.1	32.4	> 100	50.7	> 100
CNC(=S)N/N=C(\C(=N/NC(=S)NC)c1ccccn1)c1ccccn1	> 100	> 100	> 100	> 53.5		> 100	> 100		24.5	72.8
O=C(O)C[C@@H]1[C@@H](O)[C@@H](O)CN2C(=O)c3ccccc3[C@H]12	> 100	> 100	> 100	> 100	> 100	> 100	> 100		> 100	> 100
COc1cc2oc(=O)cc(C)c2cc1O	> 100		> 100	> 100	> 100	> 100	> 100	> 100	> 100	> 100
COC(=O)CCc1ccc2c(c1)C(=O)CC2		> 100	> 100	> 100	> 100	> 100	> 100	> 100	> 100	> 100
CCN(CC)C(=S)Nc1ccc(-c2cc3ccc(O)cc3oc2=O)cc1	> 100	> 100	> 100		81.9	> 100	48.4	> 100	> 100	43.7
O=c1c2c3c(sc2nc2n1N=C(c1ccc(Cl)cc1)CS2)CCCC3	> 100	> 100	> 100	> 100	> 100	> 100	> 100	> 100		> 100
O=C(c1ccccc1)n1cc(-c2ccccc2)c2c(=O)[nH]cnc21	> 100	> 100	> 100	> 100	> 100		> 100	> 100	> 100	> 100
